The assay has as its system biting midges (Culicoides furens). Nature of the assay: Competitive field test: biting midges attracted to, killed by and collected in a CO2/octenol-baited heated electrical grid device, with or without test compound emitted. Particulars: for Midges collected: linalool 1 mg/hr; for Reduction of average biting midge kill counts: over three trials, linalool 1 mg/hr vs no linalool. In kind it is in vivo. The procedure:
A device comprising a cylindrical housing essentially shaped like an opened one-gallon paint can, was equipped to release determinable amounts of one or more of CO2, octenol and test compound of this invention. The device housing was equipped (covered) at it its open end with an electrical grid operating at a temperature of approximately 110° F. (44° C.) for killing any midges attracted to the grid and thereby collecting the killed midges in the housing. With the device in operation, biting midges would be attracted by the scent of CO2 and/or octenol eminating from the interior of the housing and from the heat of the electrical grid. Then, with the additional introduction of test compound from the housing it was possible to determine the inhibiting effect of the test compound by determining the decrease in biting midges attracted and killed by the teat device. The test was conducted in a designated test area known for its abundance of biting midges along the Indian River in Vero Beach, Fla. at the U.S. Department of Agriculture test facility. Competitive tests were conducted over a twelve day period in September.. During Days 1 to 3 and 7 to 9 the test conditions of the test device were set to mimic a bird as the target, namely the device emitted 50 cc/min CO2 and no octenol, and during Days 4 to 6 and 10 to 12 the test conditions were set to mimic a mammal as the target, namely the device emitted 50 cc/min CO2 and 7 mg/hr octenol. In these competitive tests, the inhibiting compound was either not emitted (Days 1 to 6) or emitted (Days 7 to 12). The test then determined the number of midges killed and collected in the device without the test compound present, and the number of midges killed and collected in the device with the test compound present in order to determine the ability of the test compound to inibit the ability of the biting midges (Culicoides furens) to sense the […] target.

Molecule `C=CC(C)(O)CCC=C(C)C` (centres unmarked) [Linalool, linalool] registered a Midges collected (Day 7, device mimicking a bird: CO2 50 cc/min, octenol 0 mg/hr) of 13; a Midges collected (Day 8, device mimicking a bird: CO2 50 cc/min, octenol 0 mg/hr) of 5; a Midges collected (Day 9, device mimicking a bird: CO2 50 cc/min, octenol 0 mg/hr) of 14; a Midges collected (Day 10, device mimicking a mammal: CO2 50 cc/min, octenol 7 mg/hr) of 29; a Midges collected (Day 11, device mimicking a mammal: CO2 50 cc/min, octenol 7 mg/hr) of 81; a Midges collected (Day 12, device mimicking a mammal: CO2 50 cc/min, octenol 7 mg/hr) of 364. Moreover, the “Midges collected, total” value is reported as “Total 32” (Days 7-9 total, bird mimic: CO2 50 cc/min, no octenol, linalool 1 mg/hr (without linalool, days 1-3: total 176)) and “Total 474” (Days 10-12 total, mammal mimic: CO2 50 cc/min, octenol 7 mg/hr, linalool 1 mg/hr (without linalool, days 4-6: total 3410)). Further, the “Midges collected, Avg./day” value (Days 10-12 average per day, mammal mimic: CO2 50 cc/min, octenol 7 mg/hr, linalool 1 mg/hr (without linalool: 1137)) is recorded as “Avg./day 158”. Further, the “Reduction of average biting midge kill counts” value runs as follows: (device mimicking a bird (CO2 50 cc/min, no octenol)) 81%; (device mimicking a mammal (CO2 50 cc/min, octenol 7 mg/hr)) 86%.

The record behind these values is patent US20030158267A1, “Method and compositions for inhibiting the scent tracking ability of biting midges” (priority 2002, published 2003).
